Measurements as given in US5057414A, “Method for the determination of the activity of serine proteases or serine protease inhibitors” (Behringwerke Aktiengesellschaft, priority 1987, dated 1991).

Experiments:
[1] = test system: plasminogen activator inhibitors; details: Lawrence and Loskutoff, Biochemistry 25, 6351-6355, 1986; cited from earlier work
[2] = test system: plasmin; experiment: Comparison Experiment 11: effect of chloramine T and/or tranexamic acid on plasmin activity in the functional PAI assay; assay type: biochemical; details: for delta A/4 min: 405 nm
Method: (§1) Preincubation of 50 μl of sample with 200 μl of a variant of solution C (plasminogen activator dissolved in basic buffer U) at 37° C. for five minutes was followed by addition of 200 μl of a variant of plasminogen reagent (F), composed of 100 mM Tris-HCl pH 8.4, crosslinked polypeptides 1%, ^R Triton×100 0.1%, 100 mM NaCl without tran-examic acid, NaN3 0.01 % (basic buffer U) with 10 CTA-U/ml plasminogen and 200 μl of distilled water with 10 mM chloramine T, 3 mM tranexamic acid to the reaction mixture. The mixture was incubated at 37° C. for 5 min, and 500 μl of 0.6 mM chromogenic plasmin substrate HD-Nva-CHA-Lys-pNA in 480 mM NaCl (or, as a substitute, 200 mM CsCl) were added. The resultant linear change in extinction, delta A/min, at 405 nm was followed.

[3] = test system: antithrombin III (AT III); experiment: Comparison Experiment 13: oxidative inactivation of antithrombin III; assay type: biochemical; details: 37° C., 15 min preincubation, pH 8.8
Method: 50 pmol of AT III in 50 μl of 50 mM Tris, 100 mM NaCl, 0.1% (w/v) Triton×100, pH 8.8 buffer, are preincubated with increasing quantities of chloramine T or hydrogen peroxide in 50 μl of distilled water at 37° C. for 15 min. Then 3 pmol of human alpha-thrombin, 2.5 IU of heparin and 2 KIU of aprotinin in 500 μl of 100 mM Tris, 150 mM NaCl, pH 8.2, are added, and the mixture is incubated at 37° C. for 5 min. Addition of 500 μl of 0.4 mM H-D-CHA-But-ArgpNA was followed by further incubation for 3 min (37° C.). The reaction was stopped by 100 μl of 8.5 M acetic acid, and the change in extinction at 405 nm was determined.

[4] = test system: human alpha-thrombin; experiment: Comparison Experiment 13: oxidation resistance of thrombin; assay type: biochemical; details: 500 nmol of chloramine T or 500 times the dose of H202
[5] = test system: u-PA/PAI complexes; experiment: Comparison Experiments 5 and 7: stability of u-PA/PAI complexes in the functional PAI determination; assay type: biochemical; details: in the reaction mixture; Comparison Experiment 5
Method: as §1, with “followed. The values found for normal plasma were about 0.2/min.” for “followed.”
The chloramine T concentrations added in the determination method specified in Example 3 were varied from 0 to 9 mmol/1 of reaction mixture. The assayed samples were either a) deficient in functional PAI (=PAI-deficientplasma) or b) rich in functional PAI. An optimum of generated plasmin activity is found on addition of between 1 and 4 mmol/1 chloramine T. The two plasma plots are parallel throughout the range, i.e. u-PA/PAI complexes are stable up to at least 9 mM chloramine T in the reaction mixture (=650 1). […]

[6] = test system: PAI/u-PA complex; experiment: Comparison Experiment 3: stability of the PAI/u-PA complex against chloramine T; assay type: biochemical
Method: (§2) 50 μl of various samples, namely either basic buffer A (1) or PAI-deficient plasma (2) and PAI-rich plasma (3) 20 were incubated with 200 μl of solution C (plasminogen activator reagent) at 23° C. for 10 min. After addition of 500 μl of solution A (basic buffer), 50 μl of chloramine T of various concentrations, 300 μl of solution E (plasmin substrate reagent) and 100 μl of solution F (plasminogen reagent), the mixtures were incubated at 37° C. for 15 min. Substrate conversion was stopped by addition of 100 μl of 8.5 M acetic acid, and the extinction at 405 nm was determined. The oxidizing agent chloramine T used in this experiment was employed in solutions of the following concentrations.

[7] = test system: urokinase; experiment: Comparison Experiment 3: stability of urokinase against chloramine T in the pure buffer system; assay type: biochemical
Method: as §2

[8] = test system: Plasmin/antiplasmin complexes; experiment: Comparison Experiment 14b: stability of plasmin/antiplasmin complexes to chloramine T; assay type: biochemical; details: in the reaction mixture, 37° C., 30 min
Method: 30 pmol of alpha2 -antiplasmin and basic buffer A (control mixture) are incubated with 50 pmol of plasmin in 175 μl of basic buffer A for 5 min (37° C.). Addition of 500 μl of chloramine T of various concentrations in basic buffer A is followed by incubation for 30 min (37° C.), and the detection reaction is started by addition of 200 μl of 2.5 mM chromogenic plasmin substrate H-D-Phe-Tyr-Arg-ANBA in basic buffer A. After 3 min (37° C.), the reaction is stopped by addition of 100 μl of 8.5 M acetic acid, and the change in extinction at 405 nm is determined. No additional plasmin activity is generated even by chloramine T concentrations above 5 mM in the reaction mixture, that is to say plasmin/antiplasmin complexes are oxidation-resistant.

For `Cc1ccc(S(=O)(=O)NCl)cc1` [chloramine T, Chloramine T], the “concentration inactivating plasminogen activator inhibitors” value [1] is given as “about 10 μM”, the “increase in plasmin activity with alpha2-antiplasmin-deficient plasma compared with normal plasma” value [2] is given as 20% and the “delta A/4 min” value ([2]; Normal plasma without alpha2-antiplasmin) is given as 271 mA. For the same compound, the “delta A/4 min” value ([2]; Normal plasma) was 225 mA, the “quantity of chloramine T inactivating 50 pmol of AT III” value [3] was 500 nmol and the “activity of thrombin at the dose inactivating AT III” value [4] was “without the activity of thrombin being impaired”. The “chloramine T concentration up to which u-PA/PAI complexes are stable” value [5] was “at least 9 mM”, the “chloramine T concentration at which the PAI/u-PA complex is stable (FIG. 3)” value [6] was “above 2 mmol/1” and the “chloramine T concentration not resulting in cleavage of the PAI/u-PA complexes” value ([6]; PAI-deficient vs PAI-rich plasma, in reaction mixture) was “above 2 mM”. The “chloramine T concentration attacking urokinase” value [7] was 1 mM and the “chloramine T concentration generating no additional plasmin activity” value [8] was “above 5 mM”.
